The source of these data is patent US4827004A, “Isoprene derivatives” (Hoffmann-La Roche Inc., priority 1986, dated 1989).

Series [1] can be described thus: acute toxicity (single oral administration). The conditions noted are these: mouse, in vivo, read-out: Toxicity LD 50. From the text:
Representative compounds of formula I were investigated with respect to their mucosa-protective and gastric acid secretion-inhibiting properties as well as to their toxicity.
(§1) In the following Table there are given for a series of representative compounds of formula I the results of the testing with respect to their mucosa-protective activity ("ethanol test") and to their gastric acid secretion-inhibiting activity. Moreover, this Table contains data concerning the acute toxicity (LD50 in the case of single oral administration to mice).

For a further series, the system named is gastric acid secretion. Nature of the series: gastric acid secretion-inhibiting activity (pylorus ligation according to Shay et al.). Type of series: in vivo, male rats. To be noted: Rattus norvegicus, read-out: Gastric acid secretion-inhibition, ID 50. As for the experimental part:
The test procedure described hereinafter was used to determine the gastric acid secretion-inhibiting activity:
The pylorus of male rats is ligated under slight ether narcosis in accordance with Shay et al. [Gastroenterology 5, 43 (1945)]. The substances to be tested, suspended in 0.5% carboxymethylcellulose, are administered intraduodenally. Control animals are treated only with the vehicle. Five hours after the ligation the animals are killed, the volume and acidity of their gastric juice are determined and the values obtained are compared with those of control animals. The ID50 is that dosage of a test substance which brings about a 50% decrease of the secretion in comparison to the control animals.
as §1

Series [2] has as its system mucous membrane of the stomach. The series can be described thus: ethanol test (mucosa-protective activity; ethanol-induced gastric lesions). It counts as in vivo, male rats. The conditions noted are these: Rattus norvegicus, po, read-out: Ethanol Test ID 50. As for the experimental part: The experimental procedure described hereinafter was used to determine the muscosa-protective property:
The oral administration of absolute ethanol to male rats in a dosage of 1 ml per rat leads within 1 hour to bloody lesions of the mucous membrane of the stomach. Various dosages of the substances to be tested (suspended in 0.125% carboxymethylcellulose) or of the vehicle alone (control) are administered to the rats orally (1 ml per rat) 30 minutes prior to the treatment with ethanol. One hour after the administration of the ethanol the animals are killed, their stomachs are investigated for the presence of lesions and the number and the total dimension of such lesions are determined. The ID50 is that dosage of a test substance which reduces by 50% the number of lesions in comparison to the control group.
as §1

[3] abbreviates: p.o., single oral administration to mice.
The mark [4] stands for this setting: intraduodenal, 5 hours after pylorus ligation, 50% decrease of secretion vs control, male rats.
Setting [5] is: 30 minutes before ethanol, dosage reducing number of lesions by 50% vs control, male rats.

Like-named read-outs stand apart in the source and are kept apart here.

As for `C=C(C)C(=O)CC/C(C)=C/CC/C(C)=C/C(N)=O` [J, (E,E)-3,7,11-trimethyl-10-oxo-2,6,11-dodecatrienamide], the LD50 in series [1] (setting [3]) lay within 1000 to 2000 mg/kg. The values for the ED50 (in the series on gastric acid secretion (5 h); in series [2]) were 63.9 mg/kg and 3.4 mg/kg, respectively.

For the compound `C=C(C)C(=O)CC/C(C)=C\CC/C(C)=C\CO` [H, (6Z,10Z)-12-hydroxy-2,6,10-trimethyl-1,6,10-dodecatrien-3-one], in series [1] (setting [3]), the LD50 lay in the range of 2500 to 5000 mg/kg. Moreover, the ED50 was 57.7 mg/kg with gastric acid secretion (setting [4]) and 1.8 mg/kg in series [2] (setting [5]).

Turning to `C=C(C)C(=O)CC/C(C)=C/CC/C(C)=C/C=NO` (mixture of isomers) [T, (2E,6E)-3,7,11-trimethyl-10-oxo-2,6,11-dodecatrienal (E/Z)-oxime], the ED50 is 9.3 mg/kg in the series on gastric acid secretion (setting [4]) and 7.8 mg/kg in series [2] (setting [5]).

In the case of `CC=CC(O)CC/C(C)=C/CC/C(C)=C/CO` (mixture of isomers) [V, (2E,6E,11(E/Z))-3,7-dimethyl-2,6,11-tridecatriene-1,10-diol], the ED50 was 57.4 mg/kg in the series on gastric acid secretion (setting [4]) and 9.3 mg/kg in series [2] (setting [5]).

Turning to `C=C(C)C(O)CC/C(C)=C/CC/C(C)=C/C=O` (stereo not drawn) [R, (all-E)-10-hydroxy-3,7,11-trimethyl-2,6,11-dodecatrienal], the LD50 in series [1] (po) is above 5000 mg/kg. For the same compound, the figures for the ED50 (in the series on gastric acid secretion (setting [4]); in series [2] (setting [5])) were 28.6 mg/kg and 6.4 mg/kg, respectively.

With `C=C(C)C(CC/C(C)=C/CC/C(C)=C/CO)(OC)OC` [Q, (all-E)-10,10-dimethoxy-3,7,11-trimethyl-2,6,11-dodecatrien-1-ol], the LD50 in series [1] (po) is above 5000 mg/kg. The ED50 in the series on gastric acid secretion (setting [4]) stood at 4.7 mg/kg; in series [2] (setting [5]), 5.3 mg/kg.

As for `C=CC(=O)CC/C(C)=C/CC/C(C)=C/CO` [B, (all-E)-12-hydroxy-6,10-dimethyl-1,6,10-dodecatrien-3-one], the ED50 amounted to 68.2 mg/kg with gastric acid secretion (setting [4]) and 0.62 mg/kg in series [2] (setting [5]).

`C=C(C)C(=O)CC/C(C)=C/CC/C(C)=C/C(=O)O` [P, (all-E)-10-Oxo-3,7,11-trimethyl-2,6,11-dodecatrienoic acid]: the LD50 in series [1] (po) lay within 1250 to 2500 mg/kg. Besides, the figures for the ED50 (in the series on gastric acid secretion (setting [4]); in series [2] (setting [5])) were 79.6 mg/kg and 5 mg/kg, respectively.

In the case of `C#CC(=O)CC/C(C)=C/CC/C(C)=C/CO` [A, (all-E)-12-hydroxy-6,10-dimethyl-6,10-dodecadien-1-yn-3-one], the LD50 in series [1] (po) was 1000 to 2000 mg/kg. Moreover, the ED50 in the series with gastric acid secretion (setting [4]) amounted to 2 mg/kg; in series [2] (setting [5]), 0.55 mg/kg.

Turning to `C#CC(CC/C(C)=C/CC/C(C)=C/CO)=NOC` (mixture of isomers) [U, (6E,10E)-12-hydroxy-6,10-dimethyl-6,10-dodecadien-1-yn-3-one (E/Z)-O-methyl oxime], in series [1] (po), the LD50 lay in the range of 1000 to 2000 mg/kg. The ED50 came out at 43.9 mg/kg in the series with gastric acid secretion (setting [4]) and 7.9 mg/kg in series [2] (setting [5]).

Take `C=C(C)C(=O)CC/C(C)=C/CC/C(C)=C/C=O` [G, (all-E)-10-oxo-3,7,11-trimethyl-2,6,11-dodecatrienal]: the LD50 in series [1] (po) fell in the range of 1000 to 2000 mg/kg. Moreover, the ED50 in the series with gastric acid secretion (setting [4]) was determined as 62.4 mg/kg; in series [2] (setting [5]), 1.8 mg/kg.

On to `C=C(C)C(=O)CC/C(C)=C/CC/C(C)=C\CO` [L, (6E,10Z)-12-hydroxy-2,6,10-trimethyl-1,6,10-dodecatrien-3-one], for which, in series [1] (setting [3]), the LD50 fell in the range of 625 to 1250 mg/kg. The results for the ED50 (with gastric acid secretion (setting [4]); in series [2] (setting [5])) were 73.4 mg/kg and 4.4 mg/kg, respectively.

Consider `C/C=C/C(=O)CC/C(C)=C/CC/C(C)=C/CO` [D, (all-E)-13-hydroxy-7,11-dimethyl-2,7,11-tridecatrien-4-one], for which the LD50 in series [1] (po) was in the range of 1000 to 2000 mg/kg. Also, the ED50 with gastric acid secretion (setting [4]) stood at 66 mg/kg; in series [2] (setting [5]), 0.79 mg/kg.

Turning to `C=C(C)C(=O)CC/C(C)=C/CC/C(C)=C/CO` [F, (all-E)-12-hydroxy-2,6,10-trimethyl-1,6,10-dodecatrien-3-one], the LD50 in series [1] (po) was 625 to 1250 mg/kg. Also, the ED50 with gastric acid secretion (setting [4]) worked out at 27.7 mg/kg; in series [2] (setting [5]), 1.3 mg/kg.

`CC#CC(=O)CC/C(C)=C/CC/C(C)=C/CO` [C, (all-E)-13-hydroxy-7,11-dimethyl-7,11-tridecadien-2-yn-4-one]: the LD50 in series [1] (po) is 1000 to 2000 mg/kg. Further, the ED50 was 80.3 mg/kg with gastric acid secretion (setting [4]) and 0.78 mg/kg in series [2] (setting [5]).

As to `C=C(C)C(O)CC/C(C)=C/CC/C(C)=C/C(=O)O` (stereo not drawn) [O, (all-E)-10-hydroxy-3,7,11-trimethyl-2,6,11-dodecatrienoic acid], the LD50 in series [1] (po) lay within 1250 to 2500 mg/kg. The ED50 in the series on gastric acid secretion (setting [4]) worked out at 48.8 mg/kg; in series [2] (setting [5]), 26.8 mg/kg.

On to `C/C(=C\CO)CC/C=C(\C)CCC(=O)C#C[Si](C)(C)C` [S, (all-E)-12-hydroxy-6,10-dimethyl-1-(trimethylsilyl)-6,10-dodecadien-1-yn-3-one], for which the ED50 in the series on gastric acid secretion (5 h) worked out at 46.9 mg/kg; in series [2], 6.5 mg/kg.

As for `C=C(C)C(=O)CC/C(C)=C\CC/C(C)=C/CO` [M, (6Z,10E)-12-hydroxy-2,6,10-trimethyl-1,6,10-dodecatrien-3-one], in series [1] (setting [3]), the LD50 lay in the range of 2500 to 5000 mg/kg. The ED50 in the series with gastric acid secretion (setting [4]) worked out at 62.7 mg/kg; in series [2] (setting [5]), 4.5 mg/kg.

As to `C=C(C)C(O)CC/C(C)=C/CC/C(C)=C/CO` (stereo not drawn) [N, (all-E)-3,7,11-trimethyl-2,6,11-dodecatriene-1,10-diol], the LD50 in series [1] (po) was above 2000 mg/kg. For the same compound, the ED50 in the series on gastric acid secretion (setting [4]) worked out at 41.6 mg/kg; in series [2] (setting [5]), 3.2 mg/kg.

In the case of `C#CC(CC/C(C)=C/CC/C(C)=C/CO)(OCC)OCC` [E, (all-E)-10,10-diethoxy-3,7-dimethyl-2,6-dodecadien-11-yn-1-ol], the ED50 turned out to be 18.4 mg/kg in the series on gastric acid secretion (setting [4]) and 0.93 mg/kg in series [2] (setting [5]).

As to `CC(C)=CC(=O)CC/C(C)=C/CC/C(C)=C/CO` [K, (all-E)-13-hydroxy-2,7,11-trimethyl-2,7,11-tridecatrien-4-one], the ED50 is 60.8 mg/kg in the series with gastric acid secretion (setting [4]) and 3.6 mg/kg in series [2] (setting [5]).

On to `C=C(C)C1(CC/C(C)=C/CC/C(C)=C/CO)OCCO1` [I, (all-E)-3,7-Dimethyl-9-[2-(1-methylvinyl)-1,3-dioxolan-2-yl]-2,6-nonadien-1-ol], for which the LD50 in series [1] (po) was above 4000 mg/kg. The figures for the ED50 (with gastric acid secretion (setting [4]); in series [2] (setting [5])) were 13.2 mg/kg and 2.7 mg/kg, respectively.
